The record followed here is publication PMC9156754, “Functional and phylogenetic analysis of TetX variants to design a new classification system” (Communications Biology, 2022).

Values after ≈ are worked out from the molar mass of the structure shown. Read-outs that look alike come from different tables or passages of the source.

One data set relates to T1, E. coli 25922.
T1 construct: ATCC 25922
In words: microbe, parasite or virus in culture. Details: broth microdilution MIC, growth of E. coli, CLSI guidelines. Conditions: Escherichia coli. Here is the method: (§1) The MICs of three antibiotics (tetracycline, minocycline, and tigecycline) for strains were determined using the microbroth dilution method and the results were interpreted according to the CLSI guidelines. For tigecycline, the breakpoint was interpreted according to the FDA criteria (susceptible, ≤2 mg/L; intermediate, 4 mg/L; resistant, ≥8 mg/L)[9]. E. coli strain ATCC 25922 was used as a quality control. The tet(X2) (WP_063856436.1), tet(X3) (WP024160783), and tet(X4) (WP094309310) genes were amplified from dairy cows’ clinical isolates[25] by PCR with primers listed in Supplementary Table 1. Then these genes were constructed into pBAD-18Kan vector and IPTG-inducible pET28b vector, respectively. The recombinant plasmids pBAD-18-tet(X2), pBAD-18-tet(X3) and pBAD-18-tet(X4) were transformed into E. coli BW25113 and followed by antimicrobial susceptibility tests. In addition, the recombinant plasmids pET28-6×His-tet(X2), pET28-6×His-tet(X3) and pET28-6×His-tet(X4) were transformed into E. coli strain BL21(DE3) for protein purification. Point mutations were introduced into the tet(X2) gene, tet(X3) gene and tet(X4) by using the QuickChange (Stratagene) commercial kit, following the manufacturer’s instructions, and confirmed by sequencing. Primers used in mutagenesis are also listed in Supplementary Table 1.

The test system of data set [1] is T2, Escherichia coli Vector control.
T2 construct: BW25113 empty pBAD18-Kan vector
As to the kind of experiment: microbe, parasite or virus in culture. Details: broth microdilution MIC, growth of E. coli, CLSI guidelines. The note with it: empty pBAD18 vector. As to the method:
as §1

Data set [2] concerns CN(C)c1cc(NC(=O)CNC(C)(C)C)c(O)c2c1C[C@H]1C[C@H]3[C@H](N(C)C)C(=O)C(C(N)=O)=C(O)[C@@]3(O)C(=O)C1=C2O. In words: purified protein. The class given is biochemical, Escherichia coli. Conditions: 0.1 M TAPS pH 8.5, 5 mM MgCl2, 500 µM NADPH, ambient temperature.

As to `CN(C)c1ccc(O)c2c1C[C@H]1C[C@H]3[C@H](N(C)C)C(O)=C(C(N)=O)C(=O)[C@@]3(O)C(O)=C1C2=O` [minocycline], the MIC in the data set on E. coli 25922 (read-out: MIC (mg/L) / MIN) turned out to be 0.25 mg/L (≈ 0.546 µM); in data set [1] (read-out: MIC (mg/L) / MIN), 1 mg/L (≈ 2.19 µM).

Turning to `CN(C)[C@@H]1C(O)=C(C(N)=O)C(=O)[C@@]2(O)C(O)=C3C(=O)c4c(O)cccc4[C@@](C)(O)[C@H]3C[C@@H]12` [tetracycline], the results for the MIC (in the data set on E. coli 25922 (read-out: MIC (mg/L) / TET^a); in data set [1] (read-out: MIC (mg/L) / TET^a)) were 1 mg/L (≈ 2.25 µM) and 2 mg/L (≈ 4.5 µM), respectively.

Consider `CN(C)c1cc(NC(=O)CNC(C)(C)C)c(O)c2c1C[C@H]1C[C@H]3[C@H](N(C)C)C(=O)C(C(N)=O)=C(O)[C@@]3(O)C(=O)C1=C2O` [tigecycline], for which the MIC in the data set on E. coli 25922 (read-out: MIC (mg/L) / TGC) was 0.25 mg/L (≈ 0.427 µM); in data set [1] (read-out: MIC (mg/L) / TGC), 0.5 mg/L (≈ 0.854 µM).

The Km is the concentration of substrate that gives half-maximal velocity. As usually defined, the kcat is the number of substrate molecules converted per active site and unit of time at saturation. Usually kcat/Km stands for the second-order rate constant that governs catalysis at low substrate concentration. Turning to Tet(X4) (Escherichia coli), in data set [2], the Michaelis-Menten constant (Km) came out at 1.73 ± 0.09 µM, the turnover number (kcat) was found to be 2 ± 0.02 s⁻¹ and the catalytic efficiency (kcat/Km) was determined as 1.16e+06 M⁻¹ s⁻¹.
